Measured values: BindingDB's records for doi:10.1021/acs.jmedchem.8b01906 (Siteone Therapeutics, 2019)

Test: Binding affinity to human recombinant Nav1.7 by radioligand binding assay

Row | SMILES | Kd
1 | Cc1nn([C@@H]2CCN([C@H](C)c3cc(Cl)cc(Cl)c3)C2)c2cc(F)c(C(=O)NS(=O)(=O)C3CC3)cc12 | 22 nM
2 | CS(=O)(=O)NC(=O)c1cc(C2CC2)c(OCC2CCN(Cc3cc(C(F)(F)F)ccc3Cl)CC2)cc1F [US9546164, 580] | 3.5 nM
